# Values of other authors, collected in PMC11247654 (ACS Medicinal Chemistry Letters, 2024).
# Legend:
# [1] = neutropenic mouse thigh infection assay
substance,measurement,setting,value
Leu10-isobactin A,In vitro activity against MRSA,MRSA,0.5 µg/mL
same,In vivo activity (active dose),[1],3 to 10 mg/kg
